The values that follow come from US7507860B2 (Pfizer Inc., priority 2004, dated 2009).

Test [1] addresses T1, human androgen receptor (hAR) (Homo sapiens, UniProt P10275).
T1 construct: made in house; host or cells: baculovirus/Sf9 insect cells (crude extract)
T1 sequence (P10275 1-920): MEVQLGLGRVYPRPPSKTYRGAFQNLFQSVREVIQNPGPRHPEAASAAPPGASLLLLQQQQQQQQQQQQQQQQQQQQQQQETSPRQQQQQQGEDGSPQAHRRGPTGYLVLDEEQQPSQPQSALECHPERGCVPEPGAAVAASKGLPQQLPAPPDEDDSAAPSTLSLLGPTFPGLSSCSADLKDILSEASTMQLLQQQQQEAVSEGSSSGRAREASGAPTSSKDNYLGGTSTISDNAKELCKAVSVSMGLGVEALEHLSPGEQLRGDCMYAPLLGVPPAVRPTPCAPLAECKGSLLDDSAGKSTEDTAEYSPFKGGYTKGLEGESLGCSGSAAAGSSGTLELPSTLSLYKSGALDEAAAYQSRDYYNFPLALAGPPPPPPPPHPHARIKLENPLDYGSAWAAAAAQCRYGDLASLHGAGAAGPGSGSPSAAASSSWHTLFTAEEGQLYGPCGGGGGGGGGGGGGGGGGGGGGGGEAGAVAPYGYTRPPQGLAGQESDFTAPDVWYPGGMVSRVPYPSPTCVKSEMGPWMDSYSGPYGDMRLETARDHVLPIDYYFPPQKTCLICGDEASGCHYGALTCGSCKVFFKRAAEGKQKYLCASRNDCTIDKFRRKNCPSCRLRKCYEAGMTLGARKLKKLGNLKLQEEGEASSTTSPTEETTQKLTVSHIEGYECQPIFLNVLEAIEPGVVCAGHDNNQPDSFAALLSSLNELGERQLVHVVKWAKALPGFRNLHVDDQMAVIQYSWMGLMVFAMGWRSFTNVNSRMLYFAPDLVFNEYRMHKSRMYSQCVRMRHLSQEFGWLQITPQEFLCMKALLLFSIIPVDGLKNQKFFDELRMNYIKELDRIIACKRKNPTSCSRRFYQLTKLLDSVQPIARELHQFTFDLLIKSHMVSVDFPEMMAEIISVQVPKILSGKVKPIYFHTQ
The test can be described thus: Competitive binding analysis on baculovirus/Sf9 generated hAR extracts with 3H-DHT tracer. The following applies: hAR extract, 1 nM 3H-DHT, one hour at 4° C; mean of multiple tests; read-out: AR Binding IC50. An outline of the steps: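 Baculovirus/Sf9-expressed hAR extract incubated with hydroxylapatite, 1 nM 3H-DHT and decreasing compound concentrations for 1 h at 4 °C, then washed three times to remove unbound tracer. Bound 3H-DHT compared with no-competitor maximum; affinity given as concentration inhibiting half of maximum binding, mean of multiple tests.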

In a further test the target is T2, androgen receptor (Homo sapiens, UniProt P10275).
T2 sequence (P10275 1-920 Q868H): T1 sequence (P10275 1-920) with Q868H
The test can be described thus: AR antagonist cell assay (MDA-MB453-MMTV clone 54-19 luciferase reporter, 100 pM DHT). The test is classed as cell-based. The following applies: MDA-MB453-MMTV clone 54-19, inhibition of 100 pM DHT induction, 17 hr; mean of multiple tests; read-out: AR Cell IC50. On the procedure:
The compounds ability to antagonize the effects of androgen on the androgen receptor were determined in a whole cell assay as described immediately below.
Experimental Procedure for AR Antagonist Cell Assay
This cell line is a stable transfected cell line with MDA-MB453 cell background (a human breast tumor cell line expressing androgen receptor). A MMTV minimal promoter containing ARE was first cloned in front of a firefly luciferase reporter gene. Then the cascade was cloned into transfection vector pUV120puro. […] Puromycin resistant stable cell line was selected. Cell Culture Media and Reagents:
Plating medium: DMEM (phenol red free), 10% charcoal treated HyClone serum, 1% L-glutamine
Assay medium: DMEM (phenol red free), 1% charcoal treated HyClone serum, 1% L-glutamine, and 1% penicillin/streptomycin
• 1. Cells are maintained in culture medium, splitting cells when they reach 80-90% confluence • 2. To test compounds, 10,000 cells/well are plated to opaque 96 cell culture plate in 100 ul/well plating medium, culture for overnight at 37° C. in cell culture incubator • 3. […] Add 10 ul/well freshly prepared DHT (final concentration at 100 pM) to each well, incubate at 37° C. for 17 hr (overnight) • 5.
The results are reported as the mean of multiple tests as described below (the numbers of tests are indicated in the footnote). N.D. denotes that the compound was not tested.
On the technique in general: A reporter such as luciferase makes a cellular process visible.

Numbering of substitutions follows the chain as printed. Some results are limits rather than exact numbers.

Usually IC50 stands for the midpoint of a concentration-inhibition curve. Regarding `CC(C)CC(Oc1ccc(C#N)c(C(F)(F)F)c1)C(=O)NC1CCc2ccccc21` (centres unmarked) [Example 54, 2-(4-Cyano-3-trifluoromethyl-phenoxy)-4-methyl-pentanoic acid indan-1-yl-amide], the half-inhibitory concentration (IC50) came out at 0.07 µM in test [1] and 0.836 µM on androgen receptor.
The corresponding values for `COc1cccc(CCNC(=O)C(CC(C)C)Oc2ccc(C#N)c(C(F)(F)F)c2)c1` (centres unmarked) [Example 58, 2-(4-Cyano-3-trifluoromethyl-phenoxy)-4-methyl-pentanoic acid-[2-(3-methoxyphenyl)-ethyl]-amide] are 0.064 µM and over 1 µM.
The matching figures for `Cc1c(O)cccc1NC(=O)C(CC(C)C)Oc1ccc(C#N)c(C(F)(F)F)c1` (centres unmarked) [Example 84, 2-(4-Cyano-3-trifluoromethyl-phenoxy)-4-methyl-pentanoic acid (3-hydroxy-2-methyl-phenyl)-amide]: 0.112 µM and over 1 µM.
The matching figures for `CCCOCCCNC(=O)C(CC(C)C)Oc1ccc(C#N)c(C(F)(F)F)c1` (centres unmarked) [Example 85, 2-(4-Cyano-3-trifluoromethyl-phenoxy)-4-methyl-pentanoic acid (3-propoxy-propyl)-amide]: 0.117 µM and over 1 µM.
With `CCCC(Oc1ccc(C#N)c(C(F)(F)F)c1)C(=O)NCCc1c[nH]c2ccccc12` (centres unmarked) [Example 65, 2-(4-Cyano-3-trifluoromethyl-phenoxy)-pentanoic acid [2-(1H-indol-3-yl)ethyl]amide], the 50% inhibitory concentration (IC50) in test [1] turned out to be 0.033 µM; at androgen receptor, 0.064 µM.
The matching figures for `Cc1ccc(CCNC(=O)C(CC(C)C)Oc2ccc(C#N)c(C(F)(F)F)c2)cc1` (centres unmarked) [Example 47, 2-(4-Cyano-3-trifluoromethyl-phenoxy)-4-methyl-pentanoic acid-(2-p-tolyl-ethyl)amide]: 0.144 µM and over 1 µM.
The corresponding values for `Cc1cccc(CCNC(=O)C(CC(C)C)Oc2ccc(C#N)c(C(F)(F)F)c2)c1` (centres unmarked) [Example 49, 2-(4-Cyano-3-trifluoromethyl-phenoxy)-4-methyl-pentanoic acid-(2-m-tolyl-ethyl)amide] are 0.075 µM and over 1 µM.
Consider `CCC(COC)NC(=O)C(CC(C)C)Oc1ccc(C#N)c(C(F)(F)F)c1` (centres unmarked) [Example 82, 2-(4-Cyano-3-trifluoromethyl-phenoxy)-4-methyl-pentanoic acid (1-methoxymethyl-propyl)-amide], for which the IC50 in test [1] was 0.218 µM; at androgen receptor, over 1 µM.
The corresponding values for `CCCC(Oc1ccc(C#N)c(Cl)c1)C(=O)OCC` (centres unmarked) [Example 99, 2-(3-Chloro-4-cyano-phenoxy)-pentanoic acid ethyl ester] are 0.031 µM and 0.749 µM.
The matching figures for `CC(C)CC(Oc1ccc(C#N)c(C(F)(F)F)c1)C(=O)NC(C)c1cccs1` (centres unmarked) [Example 13, 2-(4-Cyano-3-trifluoromethyl-phenoxy)-4-methyl-pentanoic acid (1-thiophen-2-ylethyl)-amide]: 0.24 µM and 0.398 µM.
The corresponding values for `COc1ccccc1CCNC(=O)C(CC(C)C)Oc1ccc(C#N)c(C(F)(F)F)c1` (centres unmarked) [Example 48, 2-(4-Cyano-3-trifluoromethyl-phenoxy)-4-methyl-pentanoic acid-[2-(2-methoxyphenyl)-ethyl]-amide] are 0.123 µM and over 1 µM.
Turning to `CCSCCNC(=O)C(CC(C)C)Oc1ccc(C#N)c(C(F)(F)F)c1` (centres unmarked) [Example 114, 2-(4-Cyano-3-trifluoromethyl-phenoxy)-4-methyl-pentanoic acid (2-ethyl sulfanyl-ethyl)-amide], the results for the concentration for half-maximal inhibition (IC50) (in test [1]; at androgen receptor) were 0.102 µM and 0.727 µM, respectively.
The corresponding values for `CC(C)CC(Oc1ccc(C#N)c(C(F)(F)F)c1)C(=O)NC(C)c1cccnc1` (centres unmarked) [Example 15, 2-(4-Cyano-3-trifluoromethyl-phenoxy)-4-methyl-pentanoic acid (1-pyridin-3-ylethyl)-amide] are 0.309 µM and over 1 µM.
